Data as given in PubChem BioAssay (NCI).
“And” between values parts separate entries of the source, which are not always exact repeats. Identical values can stand only once.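 Results reflect a 48-hour exposure of cells in 96-well plates to compound at five concentrations. GI50 = concentration required for 50% inhibition of growth. The concentration for full growth arrest is given as TGI.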

Key:
Experiment in all cases: NCI tumour cell line growth inhibition, 48 h
P388/ADR leukemia = tested on: P388/ADR leukemia
HOP-18 NSCLC = tested on: HOP-18 NSCLC
KM20L2 colon = tested on: KM20L2 colon
DMS 273 small cell lung = tested on: DMS 273 small cell lung
XF 498 CNS = tested on: XF 498 CNS
M19-MEL melanoma = tested on: M19-MEL melanoma
DMS 114 small cell lung = tested on: DMS 114 small cell lung
P388 leukemia = tested on: P388 leukemia
DLD-1 colon = tested on: DLD-1 colon

Row | Compound | TGI (P388/ADR leukemia) [µM] | TGI (HOP-18 NSCLC) [µM] | TGI (KM20L2 colon) [µM] | TGI (DMS 273 small cell lung) | TGI (XF 498 CNS) | TGI (M19-MEL melanoma) | TGI (DMS 114 small cell lung) | TGI (P388 leukemia) [µM] | TGI (DLD-1 colon) [µM] | GI50 (KM20L2 colon) [µM] | GI50 (DMS 273 small cell lung) [µM] | GI50 (XF 498 CNS) [µM] | GI50 (M19-MEL melanoma) [µM] | GI50 (DMS 114 small cell lung) [µM] | GI50 (DLD-1 colon) [µM]
1 | COc1ccc2cc1Oc1ccc(cc1)C[C@H]1c3cc(c(OC)cc3CCN1C)Oc1c(O)c(OC)cc3c1[C@H](C2)N(C)CC3 | 109 | 139 | 4.27 | 40.1 µM | 49.4 µM | 43.4 µM | 49.7 µM | 19.8 | 53.7 | – | – | – | – | – | –
2 | COC(=O)[C@@H](O)[C@](O)(CCC(C)C)C(=O)O[C@@H]1C(OC)=C[C@]23CCCN2CCc2cc4c(cc2[C@H]13)OCO4 | 11 | 7.81 | 9.49 | 3.47 µM | – | 4.16 µM | 2.2 µM | 1.16 | > 19.7 | – | – | – | – | – | –
3 | COc1ccc2[nH]cc(/C=C(/C)c3ccncc3)c2c1 | 22.6 | > 100 | 8.67 | 19.6 µM and 10.5 µM | 27.8 µM and 44.5 µM | 32 µM and 21.5 µM | 7.19 µM and 6.35 µM | 9.68 | > 100 | 2.96 | 2.37 | 4.3 | 6.77 | 2.23 | 4
